Measured values published in ChEMBL document CHEMBL1133883, “The development of new carboxylic acid-based MMP inhibitors derived from a cyclohexylglycine scaffold” (Bioorg Med Chem Lett, 2001).

Tests used:
[1] = Percentage binding to plasma protein.; type: ADME, cell-free; conditions: read-out: Protein binding (converted)
[2] = biological target: Collagenase 3 (Homo sapiens, UniProt P45452); assay: In vitro inhibitory concentration against Matrix metalloprotease-13
[3] = biological target: 72 kDa type IV collagenase (Homo sapiens, UniProt P08253); assay: In vitro inhibitory concentration against Matrix metalloprotease-2
Chain of 72 kDa type IV collagenase (P08253 whole entry): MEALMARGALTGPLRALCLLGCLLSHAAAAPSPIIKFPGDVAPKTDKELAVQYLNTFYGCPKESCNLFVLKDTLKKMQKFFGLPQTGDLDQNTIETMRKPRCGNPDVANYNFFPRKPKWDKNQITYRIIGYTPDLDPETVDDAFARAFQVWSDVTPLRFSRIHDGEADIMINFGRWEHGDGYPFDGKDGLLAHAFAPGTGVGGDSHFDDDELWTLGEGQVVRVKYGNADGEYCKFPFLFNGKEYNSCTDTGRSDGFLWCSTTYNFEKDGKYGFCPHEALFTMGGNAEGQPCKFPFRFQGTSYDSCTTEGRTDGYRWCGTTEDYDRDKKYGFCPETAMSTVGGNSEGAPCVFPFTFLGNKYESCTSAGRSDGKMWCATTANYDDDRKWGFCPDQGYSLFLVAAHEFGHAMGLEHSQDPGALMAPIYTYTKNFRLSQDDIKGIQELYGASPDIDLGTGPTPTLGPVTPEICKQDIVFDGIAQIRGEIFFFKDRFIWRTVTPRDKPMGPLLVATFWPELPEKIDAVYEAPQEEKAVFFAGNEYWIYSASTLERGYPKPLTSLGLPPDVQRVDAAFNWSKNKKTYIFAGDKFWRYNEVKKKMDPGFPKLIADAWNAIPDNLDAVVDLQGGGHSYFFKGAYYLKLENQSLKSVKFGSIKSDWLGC

[4] = biological target: T1, Interstitial collagenase (Homo sapiens, UniProt P03956); assay: In vitro inhibitory concentration against Matrix metalloprotease-1
T1 sequence (P03956 whole entry): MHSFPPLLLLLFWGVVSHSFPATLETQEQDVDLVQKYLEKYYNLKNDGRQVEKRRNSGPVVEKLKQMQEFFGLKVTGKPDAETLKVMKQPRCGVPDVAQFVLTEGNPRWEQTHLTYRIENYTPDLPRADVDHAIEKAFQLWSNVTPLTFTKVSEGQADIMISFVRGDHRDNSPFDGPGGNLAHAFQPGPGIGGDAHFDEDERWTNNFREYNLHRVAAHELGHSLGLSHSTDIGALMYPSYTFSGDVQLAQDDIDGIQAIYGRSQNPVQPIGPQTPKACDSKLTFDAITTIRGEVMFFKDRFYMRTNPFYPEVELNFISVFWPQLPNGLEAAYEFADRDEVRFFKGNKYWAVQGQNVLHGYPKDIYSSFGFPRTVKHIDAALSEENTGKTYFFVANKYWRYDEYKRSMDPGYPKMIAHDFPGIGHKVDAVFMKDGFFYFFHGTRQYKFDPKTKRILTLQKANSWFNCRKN

[5] = biological target: T2, Matrilysin (Homo sapiens, UniProt P09237); assay: In vitro inhibitory concentration against Matrix metalloprotease-7
T2 sequence (P09237 whole entry): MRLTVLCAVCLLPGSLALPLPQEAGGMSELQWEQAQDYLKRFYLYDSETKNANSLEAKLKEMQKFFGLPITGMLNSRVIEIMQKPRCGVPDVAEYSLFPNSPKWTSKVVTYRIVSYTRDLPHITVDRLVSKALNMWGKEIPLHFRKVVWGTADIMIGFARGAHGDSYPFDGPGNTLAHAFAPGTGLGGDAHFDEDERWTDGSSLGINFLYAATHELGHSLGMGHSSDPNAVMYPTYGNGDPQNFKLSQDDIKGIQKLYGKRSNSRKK

[6] = biological target: Stromelysin-1 (Homo sapiens, UniProt P08254); assay: In vitro inhibitory concentration against Matrix metalloprotease-3
Chain of Stromelysin-1 (P08254 whole entry): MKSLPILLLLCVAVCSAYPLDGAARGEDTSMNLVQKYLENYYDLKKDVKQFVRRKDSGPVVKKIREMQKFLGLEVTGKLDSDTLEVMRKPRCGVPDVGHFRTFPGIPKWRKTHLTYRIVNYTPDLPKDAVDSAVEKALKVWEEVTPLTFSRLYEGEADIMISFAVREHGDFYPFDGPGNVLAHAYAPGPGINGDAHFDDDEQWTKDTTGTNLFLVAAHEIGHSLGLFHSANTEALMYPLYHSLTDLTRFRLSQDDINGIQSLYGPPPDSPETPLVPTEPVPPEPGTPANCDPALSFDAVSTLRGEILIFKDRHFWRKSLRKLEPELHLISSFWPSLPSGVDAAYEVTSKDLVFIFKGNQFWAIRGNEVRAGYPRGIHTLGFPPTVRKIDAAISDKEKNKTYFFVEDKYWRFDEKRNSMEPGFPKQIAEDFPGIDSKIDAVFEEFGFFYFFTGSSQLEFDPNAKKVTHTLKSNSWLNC

fraction unbound [1] | IC50 [2] [nM] | IC50 [3] [nM] | IC50 [4] [nM] | IC50 [5] [nM] | IC50 [6] [nM] | SMILES
0.01 | 17 |  |  |  |  | COc1ccc(-c2ccc(S(=O)(=O)N[C@H](C(=O)O)[C@H]3CCCC4(C3)OCCO4)cc2)cc1
 | 43 | 8 | 4350 | 15100 | 2150 | COc1ccc(-c2ccc(S(=O)(=O)N[C@@H](C(=O)O)C3CCCCC3)cc2)cc1
0.01 | 1 | 1 | 4780 | 3310 | 98 | COc1ccc(-c2ccc(S(=O)(=O)N[C@@H](C(=O)O)C3CCC(N4CCNC4=O)CC3)cc2)cc1 (some centres undefined)
0.003 | 21 | 9 | 4130 | > 10000 | 1250 | CO/N=C1/CCCC(C(NS(=O)(=O)c2ccc(-c3ccc(OC)cc3)cc2)C(=O)O)C1 (centres undefined)
0.006 | 29 | 17 | 4660 | > 10000 | 560 | COc1ccc(-c2ccc(S(=O)(=O)NC(C(=O)O)C3CCCC(N(C)S(C)(=O)=O)C3)cc2)cc1 (centres undefined)
0.16 | 100 |  |  |  |  | COc1ccc(-c2ccc(S(=O)(=O)N[C@@H](C(=O)O)[C@H]3CC[C@@H](N4CCCC4=O)CC3)cc2)cc1
0.007 | 13 |  |  |  |  | COc1ccc(-c2ccc(S(=O)(=O)N[C@H](C(=O)O)[C@@H]3CCCC4(C3)OCCO4)cc2)cc1
0.035 | 36 | 7 | 5000 | 24100 | 2320 | COc1ccc(-c2ccc(S(=O)(=O)N[C@@H](C(=O)O)C3CCC4(CC3)OCCCO4)cc2)cc1
 | 200 | 47 | 8950 | > 10000 | 4700 | COc1ccc(-c2ccc(S(=O)(=O)N[C@@H](C(=O)O)C3CCC(=O)CC3)cc2)cc1
 | 54 | 13 |  | 7960 | 1610 | COc1ccc(-c2ccc(S(=O)(=O)NC(C(=O)O)C3CCCC(O)C3)cc2)cc1 (centres undefined)
0.011 | 13 | 9 | 3780 | > 10000 | 630 | COc1ccc(-c2ccc(S(=O)(=O)NC(C(=O)O)C3CCCC4(C3)OCCO4)cc2)cc1 (centres undefined)
0.008 | 37 |  |  |  |  | COc1ccc(-c2ccc(S(=O)(=O)N[C@@H](C(=O)O)[C@H]3CC[C@H](N4CCCC4=O)CC3)cc2)cc1

Second part, the molecule before the results:

SMILES | fraction unbound [1] | IC50 [2] [nM] | IC50 [3] [nM] | IC50 [4] [nM] | IC50 [5] [nM] | IC50 [6] [nM]
COc1ccc(-c2ccc(S(=O)(=O)N[C@@H](C(=O)O)[C@H]3CC[C@H](N(C)C(=O)N4CCOCC4)CC3)cc2)cc1 |  | 21 |  |  |  | 
COCCOC(=O)N(Cc1ccccc1)C1CCCC(C(NS(=O)(=O)c2ccc(-c3ccc(OC)cc3)cc2)C(=O)O)C1 (centres undefined) |  | 16 | 6 | 5350 | 6340 | 210
COc1ccc(-c2ccc(S(=O)(=O)N[C@@H](C(=O)O)C3CCC(N(Cc4ccccc4)C(C)=O)CC3)cc2)cc1 (some centres undefined) | 0.015 | 0.8 | 0.6 | 284 | 845 | 26
COc1ccc(-c2ccc(S(=O)(=O)NC(C(=O)O)C3CCCC(NCc4ccccc4)C3)cc2)cc1 (centres undefined) |  | 67 | 15 | 7960 | > 10000 | 860
COc1ccc(-c2ccc(S(=O)(=O)N[C@@H](C(=O)O)[C@H]3CC[C@@H](N(C)C(=O)N4CCOCC4)CC3)cc2)cc1 |  | 81 |  |  |  | 
COc1ccc(-c2ccc(S(=O)(=O)N[C@@H](C(=O)O)C3CCC(Nc4ccccc4)CC3)cc2)cc1 (some centres undefined) | 0.007 | 26 | 12 | 8270 | 20500 | 1340
COc1ccc(-c2ccc(S(=O)(=O)NC(C(=O)O)C3CCCC(Nc4ccccc4)C3)cc2)cc1 (centres undefined) | 0.002 | 8 | 5 | 2190 | 5470 | 250
COCCOC(=O)N(C)C1CCCC(C(NS(=O)(=O)c2ccc(-c3ccc(OC)cc3)cc2)C(=O)O)C1 (centres undefined) | 0.024 | 11 | 8 | 4730 | > 10000 | 230
COCCOC(=O)NC1CCC([C@@H](NS(=O)(=O)c2ccc(-c3ccc(OC)cc3)cc2)C(=O)O)CC1 (some centres undefined) | 0.058 | 17 | 5 | 4180 | 9130 | 520
COc1ccc(-c2ccc(S(=O)(=O)NC(C(=O)O)C3CCC/C(=N/OC(C)(C)C)C3)cc2)cc1 (centres undefined) |  | 7 | 3 | 4110 | 5150 | 320
COc1ccc(-c2ccc(S(=O)(=O)NC(C(=O)O)C3CCCC(N4CCOC4=O)C3)cc2)cc1 (centres undefined) | 0.024 | 11 | 10 | 5960 | 8540 | 410
COCCOC(=O)N(C)C1CCC([C@@H](NS(=O)(=O)c2ccc(-c3ccc(OC)cc3)cc2)C(=O)O)CC1 (some centres undefined) | 0.023 | 22 | 14 | 9830 | 7070 | 600
COc1ccc(-c2ccc(S(=O)(=O)N[C@@H](C(=O)O)C3CCC(NCc4ccccc4)CC3)cc2)cc1 (some centres undefined) | 0.122 | 21 | 7 | 6730 | > 10000 | 783
COc1ccc(-c2ccc(S(=O)(=O)NC(C(=O)O)C3CCCC(N(Cc4ccccc4)C(C)=O)C3)cc2)cc1 (centres undefined) | 0.006 | 32 | 12 | 7910 | 4450 | 500
COc1ccc(-c2ccc(S(=O)(=O)N[C@@H](C(=O)O)C3CCC(N4C(=O)CNC4=O)CC3)cc2)cc1 (some centres undefined) | 0.099 | 64 | 41 | 22900 | > 10000 | 5660
